Data: patent US20210007985A1, “LIPOSOMAL ANTI-INFECTIVE FORMULATIONS TO INHIBIT NON-TUBERCULOUS MYCOBACTERIA (NTM) MICROAGGREGATE FORMATION AND ESTABLISHMENT OF NTM BIOFILM” (ARADIGM CORPORATION, priority 2017, published 2021)
In brackets after ≈: the same amount, converted by molar mass.

How the values were obtained:
M. avium biofilm = settings: incubation of M. avium with antibiotic; McNabe et al. 2012; cited from earlier work
[1] = system: M. avium (MAC Strain 104); experiment: M. avium mouse lung infection model over 6 weeks; format: in vivo, mice; settings: 1 mg/kg; 3 and 6 weeks
M. avium = settings: Inderlied et al, 1989; cited from earlier work
M. avium microaggregates = experiment: Electron micrographs of M. avium microaggregates on epithelial cell monolayer (FIG. 1); format: cell-based; settings: 300 μg/mL; treatment added at t=0 h; growth over 24 h
Description: FIG. 1 consists of FIGS. 1A, 1B, 1C, 1D and 1E.

M. avium MAC 104 = experiment: Antimicrobial susceptibility (MIC, microdilution) of MAC 104 before and after treatment; format: cell-based; settings: Mycobacterium avium, MAC104, read-out: MIC of M. avium to ciprofloxacin, before and after treatment
M. avium 109 = experiment: Activity against M. avium 109 in human macrophage (THP-1) model; format: cell-based; settings: M. avium 109 in THP-1 macrophages; 20 μg/mL for 4 days
M. avium 101 = experiment: Activity against M. avium 101 in human macrophage (THP-1) model; format: cell-based

[H]/N=C(/N)N[C@H]1[C@H](O)[C@@H](O)[C@H](O[C@@H]2O[C@@H](C)[C@](O)(C=O)[C@H]2O[C@@H]2O[C@@H](CO)[C@H](O)[C@@H](O)[C@@H]2NC)[C@@H](N/C(N)=N\[H])[C@@H]1O [streptomycin]
effect on M. avium biofilm formation (M. avium biofilm): an increase, not decrease, in the biofilm formation

CC1(C)S[C@@H]2[C@H](NC(=O)[C@H](N)c3ccccc3)C(=O)N2[C@H]1C(=O)O [ampicillin]
effect on M. avium biofilm formation (M. avium biofilm): no effect on biofilm

O=C(O)c1cn(C2CC2)c2cc(N3CCNCC3)c(F)cc2c1=O [Ciprofloxacin]
statistical effect on lung CFU [1]: did not have a statistically significant effect | minimum inhibitory concentration (MIC) (M. avium): 5 µg/mL (≈ 15.1 µM) | microaggregate formation in electron micrographs (M. avium microaggregates): much less microaggregate formation than control | MIC (M. avium MAC 104): 8 µg/mL | CFU Day 4 (M. avium 109): 1.1 ± 0.4 × 10^4 CFU | statistical effect on CFU in macrophages (M. avium 101; M. avium 101 and 109, 20 μg/ml, Day 4 vs Day 0): did not have a statistically significant effect | CFU Day 0 (M. avium 101; M. avium 101 in THP-1 macrophages, initial infecting load before treatment at 20 μg/mL): 7 ± 0.2 × 10^4 CFU

TMP/SMX
effect on M. avium biofilm formation (M. avium biofilm): no effect on biofilm
